Source: patent publication US20150038545A1, “HYDROXYPHENYL PYRROLE COMPOUNDS CONTAINING AN HYDROXAMIC ACID AS HDAC INHIBITORS AND MEDICINAL APPLICATIONS THEREOF” (UNIVERSIDAD DEL PAÍS VASCO, priority 2011, published 2015)

What was measured:
K562 = assay: Cancer cell growth inhibition (CellTiter-Glo), K562; assay type: cell-based, Human; settings: Homo sapiens; CML, K562, 72 h treatment
Method: (§1) Cell culture-based assays were used to evaluate the ability of compounds of the invention to inhibit cancer cell growth.
(§2) Cells were obtained from the American Type Culture Collection (ATCC). Cells were cultured at 37° C. with 5% CO2 in the appropriate growth medium (see table below), and harvested respectively during the logarithmic growth period and counted with hemocytometer. The cell viability was examined by trypan blue exclusion. Cell concentrations were adjusted to 5.56×10^4 cells/ml with respective medium.
(§3) Stock solutions of test compounds and positive drugs Doxorubicin (Zhejiang, Haizheng, China), Cisplatin (Nanjing Zhiyao, China) and Mitomycin (Zhejiang, Haizheng, China) were prepared in dimethyl sulphoxide (DMSO) or PBS at 20 mM.
(§4) In order to determine the IC50 for each compound, experiments were carried out in 96-well plates and the cell lines seeded at a density of 5,000 cells/well. […] All treatments were performed in triplicate. 10 μl of drug solution was added to each well and incubated for 72 hours. At the end of the incubation, 100 μl of the CellTiter-Glo Reagent were added to each well and the contents were mixed for 2 munites on an orbital shaker to induce cell lysis. The plate was incubated at room temperature for 10 minutes to stabilize luminiscent signal, and luminiscent was recorded. […] In order to calculate IC50 values, dose-responsive curves were fitted using nonlinear regression model with a sigmoidal dose response.

LNCaP = assay: Cancer cell growth inhibition (CellTiter-Glo), LNCaP; assay type: cell-based, Human; settings: Homo sapiens, Prostate Cancer, 72 h treatment
Method: as §1, §2, §3, §4

HepG2 = assay: Cancer cell growth inhibition (CellTiter-Glo), HepG2; assay type: cell-based; settings: Homo sapiens; Liver Cancer, HepG2, 72 h treatment
Method: as §1, §2, §3, §4

HCT-116 = assay: Cancer cell growth inhibition (CellTiter-Glo), HCT-116; assay type: cell-based; settings: Homo sapiens; Colorectal Cancer, HCT-116, 72 h treatment
Method: as §1, §2, §3, §4

PANC-1 = assay: Cancer cell growth inhibition (CellTiter-Glo), PANC-1; assay type: cell-based, Human; settings: Homo sapiens; Pancreatic Cancer, PANC-1, 72 h treatment
Method: as §1, §2, §3, §4

NCI-H1703 = assay: Cancer cell growth inhibition (CellTiter-Glo), NCI-H1703; assay type: cell-based, Human; settings: Homo sapiens; Lung Cancer, NCI-H1703, 72 h treatment
Method: as §1, §2, §3, §4

SK-OV-3 = assay: Cancer cell growth inhibition (CellTiter-Glo), SK-OV-3; assay type: cell-based, Human; settings: Homo sapiens; Ovarian Cancer, SK-OV-3, 72 h treatment
Method: as §1, §2, §3, §4

HT-29 = assay: Cancer cell growth inhibition (CellTiter-Glo), HT-29; assay type: cell-based, Human; settings: Homo sapiens; Colorectal Cancer, HT-29, 72 h treatment
Method: as §1, §2, §3, §4

HT-1080 = assay: Cancer cell growth inhibition (CellTiter-Glo), HT-1080; assay type: cell-based; settings: Homo sapiens; Fibrosarcoma, HT-1080, 72 h treatment
Method: as §1, §2, §3, §4

Bx-PC-3 = assay: Cancer cell growth inhibition (CellTiter-Glo), Bx-PC-3; assay type: cell-based, Human; settings: Homo sapiens, BXPC-3; Pancreatic Cancer, Bx-PC-3, 72 h treatment
Method: as §1, §2, §3, §4

SW620 = assay: Cancer cell growth inhibition (CellTiter-Glo), SW620; assay type: cell-based; settings: Homo sapiens, SW-620; Colorectal Cancer, SW620, 72 h treatment
Method: as §1, §2, §3, §4

NCI-H460 = assay: Cancer cell growth inhibition (CellTiter-Glo), NCI-H460; assay type: cell-based, Human; settings: Homo sapiens; Lung Cancer, NCI-H460, 72 h treatment
Method: as §1, §2, §3, §4

NCI-N87 = assay: Cancer cell growth inhibition (CellTiter-Glo), NCI-N87; assay type: cell-based, Human; settings: Homo sapiens; Gastric Cancer, NCI-N87, 72 h treatment
Method: as §1, §2, §3, §4

BGC-823 = assay: Cancer cell growth inhibition (CellTiter-Glo), BGC-823; assay type: cell-based, Human; settings: Homo sapiens; Gastric Cancer, BGC-823, 72 h treatment
Method: as §1, §2, §3, §4

MIAPaCa-2 = assay: Cancer cell growth inhibition (CellTiter-Glo), MIAPaCa-2; assay type: cell-based; settings: Homo sapiens, MIA PaCa-2; Pancreatic Cancer, MIAPaCa-2, 72 h treatment
Method: as §1, §2, §3, §4

SK-BR-3 = assay: Cancer cell growth inhibition (CellTiter-Glo), SK-BR-3; assay type: cell-based, Human; settings: Homo sapiens; Breast Cancer, SK-BR-3, 72 h treatment
Method: as §1, §2, §3, §4

KB = assay: Cancer cell growth inhibition (CellTiter-Glo), KB; assay type: cell-based, Human; settings: Homo sapiens, Oral Cancer, 72 h treatment
Method: as §1, §2, §3, §4

Colo205 = assay: Cancer cell growth inhibition (CellTiter-Glo), Colo205; assay type: cell-based; settings: Homo sapiens, COLO 205; Colorectal Cancer, Colo205, 72 h treatment
Method: as §1, §2, §3, §4

IC50 (K562) [µM] | IC50 (LNCaP) [µM] | IC50 (HepG2) [µM] | IC50 (HCT-116) [µM] | IC50 (PANC-1) [µM] | IC50 (NCI-H1703) [µM] | IC50 (SK-OV-3) [µM] | IC50 (HT-29) [µM] | IC50 (HT-1080) [µM] | IC50 (Bx-PC-3) [µM] | IC50 (SW620) [µM] | IC50 (NCI-H460) [µM] | IC50 (NCI-N87) [µM] | IC50 (BGC-823) [µM] | IC50 (MIAPaCa-2) [µM] | IC50 (SK-BR-3) [µM] | IC50 (KB) [µM] | IC50 (Colo205) [µM] | Structure (SMILES)
1.02 | 1.11 | 1.1 | 0.95 | 6.04 | 3.26 | 3.16 | 1.42 | 3 | 2.68 | 1.31 | 2.4 | 1 | 2.16 | 2.75 | 3.49 | 0.95 | 1.87 | O=C(CCCCCNC(=O)c1[nH]c(-c2ccccc2)cc1-c1ccc(O)cc1)NO [Example 1, N-(6-(hydroxyamino)-6-oxohexyl)-3-(4-hydroxyphenyl)-5-phenyl-1H-pyrrole-2-carboxamide]
1.61 | 1.77 | 0.99 | 1.75 | 27.7 | 2.06 | 6.88 | 4.04 | 3.24 | 4.27 | 1.48 | 9.41 | 1.24 | 11.7 | 4.08 | 3.37 | 2.23 | 1.82 | O=C(CCCCCNC(=O)c1[nH]c(-c2ccc(O)cc2)cc1-c1ccccc1)NO [Example 2, N-(6-(hydroxyamino)-6-oxohexyl)-5-(4-hydroxyphenyl)-3-phenyl-1H-pyrrole-2-carboxamide]
1.75 | 0.59 | 0.28 | 0.45 | 29.2 | 1.64 | 1.56 | 3.45 | 3.12 | 2.42 | 0.3 | 10.9 | 0.16 | 23.1 | 1.59 | 0.43 | 0.87 | 0.59 | O=C(CCCCCNC(=O)c1[nH]c(-c2ccc(O)cc2)cc1-c1ccoc1)NO [Example 5, 3-(3-furyl)-N-(5-(hydroxycarbamoyl)pentyl)-5-(4-hydroxy-phenyl)-1H-pyrrole-2-carboxamide]
1.35 | 0.8 | 0.48 | 0.78 | 22.2 | 1.83 | 3.15 | 3.64 | 3.1 | 2.91 | 0.67 | 9.38 | 0.48 | 13.8 | 2.49 | 1.36 | 1.45 | 0.87 | O=C(CCCCCNC(=O)c1[nH]c(-c2ccc(O)cc2)cc1-c1ccsc1)NO [Example 6, N-(5-(hydroxycarbamoyl)pentyl)-5-(4-hydroxyphenyl)-3-(3-thienyl)-1H-pyrrole-2-carboxamide]
